Measurements from ChEMBL document CHEMBL4196212, “Targeting Cytochrome P450 (CYP) 1B1 Enzyme with Four Series of A-Ring Substituted Estrane Derivatives: Design, Synthesis, Inhibitory Activity, and Selectivity” (J Med Chem, 2018).

Tests used:
[1] = biological target: T1, CYP1B1 (Homo sapiens, UniProt Q16678); assay: Inhibition of recombinant human CYP1B1 at 0.3 uM incubated for 45 mins using 7-ethyl-O-resorufin substrate in presence of NADPH regenerating system by fluorescence based ethoxyresorufin-O-deethylase assay; conditions: recombinant human CYP1B1, probe 7-ethyl-O-resorufin (7-ethoxyresorufin)
T1 sequence (Q16678 whole entry): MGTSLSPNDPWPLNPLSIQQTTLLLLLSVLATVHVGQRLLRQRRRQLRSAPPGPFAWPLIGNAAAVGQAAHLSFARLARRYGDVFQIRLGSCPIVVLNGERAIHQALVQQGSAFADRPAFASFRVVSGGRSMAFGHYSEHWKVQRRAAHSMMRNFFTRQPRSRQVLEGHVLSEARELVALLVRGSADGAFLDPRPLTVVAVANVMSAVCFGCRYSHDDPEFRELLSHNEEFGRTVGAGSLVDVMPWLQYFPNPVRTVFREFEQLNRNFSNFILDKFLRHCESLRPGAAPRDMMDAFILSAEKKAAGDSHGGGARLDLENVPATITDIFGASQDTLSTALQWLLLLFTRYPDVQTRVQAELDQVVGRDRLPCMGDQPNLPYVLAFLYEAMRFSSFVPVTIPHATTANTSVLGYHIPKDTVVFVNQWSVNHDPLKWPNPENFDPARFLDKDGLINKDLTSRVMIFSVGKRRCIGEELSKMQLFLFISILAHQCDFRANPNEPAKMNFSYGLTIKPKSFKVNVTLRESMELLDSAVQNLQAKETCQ

[2] = biological target: T1, CYP1B1; assay: Inhibition of recombinant human CYP1B1 at 3 uM incubated for 45 mins using 7-ethyl-O-resorufin substrate in presence of NADPH regenerating system by fluorescence based ethoxyresorufin-O-deethylase assay; conditions: recombinant human CYP1B1, probe 7-ethyl-O-resorufin (7-ethoxyresorufin)
[3] = biological target: T2, CYP1A1 (Homo sapiens, UniProt P04798); assay: Inhibition of recombinant human CYP1A1 at 0.3 uM incubated for 25 mins using 7-ethyl-O-resorufin substrate in presence of NADPH regenerating system by fluorescence based ethoxyresorufin-O-deethylase assay; assay type: ADME; conditions: recombinant human CYP1A1, probe 7-ethyl-O-resorufin (7-ethoxyresorufin)
T2 sequence (P04798 whole entry): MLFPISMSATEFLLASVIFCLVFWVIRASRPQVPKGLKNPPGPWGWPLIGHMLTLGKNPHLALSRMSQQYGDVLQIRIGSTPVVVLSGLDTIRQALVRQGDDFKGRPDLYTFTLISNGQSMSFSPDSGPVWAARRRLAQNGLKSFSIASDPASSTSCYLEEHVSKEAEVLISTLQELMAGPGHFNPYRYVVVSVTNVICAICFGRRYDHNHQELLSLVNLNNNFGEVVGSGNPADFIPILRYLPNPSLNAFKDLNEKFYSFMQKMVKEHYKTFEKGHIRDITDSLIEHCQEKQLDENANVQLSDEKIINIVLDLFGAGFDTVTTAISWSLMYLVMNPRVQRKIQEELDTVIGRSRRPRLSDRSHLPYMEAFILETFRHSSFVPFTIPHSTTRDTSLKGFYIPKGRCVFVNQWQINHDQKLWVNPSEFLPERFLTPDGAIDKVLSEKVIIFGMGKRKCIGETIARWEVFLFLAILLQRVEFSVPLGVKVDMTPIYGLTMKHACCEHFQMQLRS

[4] = biological target: T2, CYP1A1; assay: Inhibition of recombinant human CYP1A1 at 3 uM incubated for 25 mins using 7-ethyl-O-resorufin substrate in presence of NADPH regenerating system by fluorescence based ethoxyresorufin-O-deethylase assay; assay type: ADME; conditions: recombinant human CYP1A1, probe 7-ethyl-O-resorufin (7-ethoxyresorufin)

Structure (SMILES) | inhibition at 0.75 h, 0.3 µM [1] [%] | inhibition at 0.75 h, 3 µM [2] [%] | inhibition at 25 min, 0.3 µM [3] [%] | inhibition at 25 min, 3 µM [4] [%]
C[C@]12CC[C@@H]3c4cc(-c5ccc(O)cc5)c(O)cc4CC[C@H]3[C@@H]1CCC2=O | 19 | 30 | – | –
C[C@]12CC[C@@H]3c4cc(-c5cccc(O)c5)c(O)cc4CC[C@H]3[C@@H]1CCC2=O | 92 | 103 | 10 | 39
COc1ccc(-c2cc3c(cc2OC)CC[C@@H]2[C@@H]3CC[C@]3(C)[C@@H](OC)CC[C@@H]23)cc1 | 11 | 20 | 1 | 5
C[C@]12CC[C@@H]3c4ccc(S(C)(=O)=O)cc4CC[C@H]3[C@@H]1CC[C@@H]2O | 0 | 5 | – | –
C[C@]12CC[C@@H]3c4cc(-c5cccc(Cl)c5)c(O)cc4CC[C@H]3[C@@H]1CC[C@@H]2O | 91 | 100 | 16 | 51
COc1ccc(-c2cc3c(cc2O)CC[C@@H]2[C@@H]3CC[C@]3(C)C(=O)CC[C@@H]23)cc1 | 95 | 103 | 8 | 18
C[C@]12CC[C@@H]3c4cc(-c5ccccc5)c(O)cc4CC[C@H]3[C@@H]1CC[C@@H]2O | 82 | 101 | 9 | 45
C[C@]12CC[C@@H]3c4cc(-c5ccccc5)c(O)cc4CC[C@H]3[C@@H]1CCC2=O | 69 | 101 | 5 | 16
C[C@]12CC[C@@H]3c4ccc(S(C)(=O)=O)cc4CC[C@H]3[C@@H]1CCC2=O | 7 | 7 | – | –
C[C@]12CC[C@@H]3c4cc(-c5ccc(Cl)cc5)c(O)cc4CC[C@H]3[C@@H]1CCC2=O | 79 | 101 | 9 | 5
CSc1ccc2c(c1)CC[C@@H]1[C@@H]2CC[C@]2(C)[C@@H](O)CC[C@@H]12 | 5 | 26 | – | –
C[C@]12CC[C@@H]3c4cc(-c5ccc(F)c(F)c5)c(O)cc4CC[C@H]3[C@@H]1CC[C@@H]2O | 92 | 100 | 2 | 47
C[S+]([O-])c1ccc2c(c1)CC[C@@H]1[C@@H]2CC[C@]2(C)C(=O)CC[C@@H]12 (stereo partly drawn) | 16 | 57 | – | –
C[C@]12CC[C@@H]3c4cc(-c5cccnc5)c(O)cc4CC[C@H]3[C@@H]1CC[C@@H]2O | – | 100 | 53 | 77

Other lines, results leading:

inhibition at 0.75 h, 0.3 µM [1] [%] | inhibition at 0.75 h, 3 µM [2] [%] | inhibition at 25 min, 0.3 µM [3] [%] | inhibition at 25 min, 3 µM [4] [%] | Structure (SMILES)
36 | 55 | – | – | C[C@]12CC[C@@H]3c4cc(-c5cccc(N)c5)c(O)cc4CC[C@H]3[C@@H]1CCC2=O
38 | 79 | 1 | 4 | COc1ccc(-c2cc3c(cc2OC)CC[C@@H]2[C@@H]3CC[C@]3(C)C(=O)CC[C@@H]23)cc1
– | 90 | – | – | C[C@]12CC[C@@H]3c4cc(-c5cccnc5)c(O)cc4CC[C@H]3[C@@H]1CCC2=O
10 | 25 | – | – | C[S+]([O-])c1ccc2c(c1)CC[C@@H]1[C@@H]2CC[C@]2(C)[C@@H](O)CC[C@@H]12 (stereo partly drawn)
88 | 101 | 12 | 48 | C[C@]12CC[C@@H]3c4cc(-c5cccc(F)c5)c(O)cc4CC[C@H]3[C@@H]1CC[C@@H]2O
97 | 100 | 14 | 51 | COc1ccc(-c2cc3c(cc2O)CC[C@@H]2[C@@H]3CC[C@]3(C)[C@@H](O)CC[C@@H]23)cc1
96 | 100 | 10 | 57 | C[C@]12CC[C@@H]3c4cc(-c5cccc(O)c5)c(O)cc4CC[C@H]3[C@@H]1CC[C@@H]2O
48 | 81 | – | – | COc1cccc(-c2cc3c(cc2O)CC[C@@H]2[C@@H]3CC[C@]3(C)C(=O)CC[C@@H]23)c1
96 | 99 | 12 | 63 | C[C@]12CC[C@@H]3c4cc(-c5ccc(Cl)cc5)c(O)cc4CC[C@H]3[C@@H]1CC[C@@H]2O
48 | 87 | 9 | 36 | C[C@]12CC[C@@H]3c4ccc(SCc5cccnc5)cc4CC[C@H]3[C@@H]1CCC2=O
6 | 55 | 4 | 9 | C#C[C@]1(O)CC[C@H]2[C@@H]3CCc4cc(OC)c(-c5ccc(OC)cc5)cc4[C@H]3CC[C@@]21C
71 | 101 | 2 | 8 | C[C@]12CC[C@@H]3c4cc(-c5ccc(F)cc5)c(O)cc4CC[C@H]3[C@@H]1CCC2=O
8 | 46 | 2 | 6 | COc1ccc(-c2cc3c(cc2OC)CC[C@@H]2[C@@H]3CC[C@@]3(C)[C@H]2CC[C@]3(C)O)cc1
74 | 100 | 5 | 11 | C[C@]12CC[C@@H]3c4cc(-c5cccc(Cl)c5)c(O)cc4CC[C@H]3[C@@H]1CCC2=O
14 | 34 | – | – | CSc1ccc2c(c1)CC[C@@H]1[C@@H]2CC[C@]2(C)C(=O)CC[C@@H]12
77 | 100 | 1 | 15 | C[C@]12CC[C@@H]3c4cc(-c5ccc(F)c(F)c5)c(O)cc4CC[C@H]3[C@@H]1CCC2=O
67 | 101 | 3 | 23 | C[C@]12CC[C@@H]3c4cc(-c5cccc(F)c5)c(O)cc4CC[C@H]3[C@@H]1CCC2=O
– | 55 | – | – | C[C@]12CC[C@@H]3c4cc(-c5ccncc5)c(O)cc4CC[C@H]3[C@@H]1CCC2=O
